For assay [1], the target named is T1, Protein mono-ADP-ribosyltransferase TIPARP (Homo sapiens, UniProt Q7Z3E1).
T1 sequence (Q7Z3E1 whole entry): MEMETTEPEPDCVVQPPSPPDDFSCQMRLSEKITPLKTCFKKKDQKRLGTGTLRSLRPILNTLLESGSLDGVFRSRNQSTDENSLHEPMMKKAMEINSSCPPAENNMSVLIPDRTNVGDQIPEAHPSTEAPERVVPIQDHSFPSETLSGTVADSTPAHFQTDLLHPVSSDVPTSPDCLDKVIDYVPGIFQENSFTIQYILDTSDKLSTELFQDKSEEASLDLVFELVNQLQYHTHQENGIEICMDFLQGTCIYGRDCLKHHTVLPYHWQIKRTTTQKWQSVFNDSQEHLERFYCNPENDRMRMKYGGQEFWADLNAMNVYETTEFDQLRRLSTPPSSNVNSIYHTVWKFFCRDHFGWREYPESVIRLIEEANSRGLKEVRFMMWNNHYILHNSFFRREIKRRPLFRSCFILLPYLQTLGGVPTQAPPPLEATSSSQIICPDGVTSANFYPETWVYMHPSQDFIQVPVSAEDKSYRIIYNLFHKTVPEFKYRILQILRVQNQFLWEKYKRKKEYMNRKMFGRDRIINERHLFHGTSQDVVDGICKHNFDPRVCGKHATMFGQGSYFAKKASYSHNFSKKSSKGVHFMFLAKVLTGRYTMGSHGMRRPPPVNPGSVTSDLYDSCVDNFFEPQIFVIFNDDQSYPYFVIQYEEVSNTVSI
The assay is described as follows: Inhibition of Compounds on PARP1/7 Enzyme Activity.
Text: (§1) Fit the dose-response data with standard dilutions using Prism GraphPad software and calculate the concentration required to achieve 5000 inhibition of PARP1 or PARP7 enzyme activity (IC50).

Assay [2] has as its target Poly [ADP-ribose] polymerase 1 (Homo sapiens, UniProt P09874). The assay is described as follows: Inhibition of Compounds on PARP1/7 Enzyme Activity.
Text: as §1

Sequence of Poly [ADP-ribose] polymerase 1 (P09874 whole entry): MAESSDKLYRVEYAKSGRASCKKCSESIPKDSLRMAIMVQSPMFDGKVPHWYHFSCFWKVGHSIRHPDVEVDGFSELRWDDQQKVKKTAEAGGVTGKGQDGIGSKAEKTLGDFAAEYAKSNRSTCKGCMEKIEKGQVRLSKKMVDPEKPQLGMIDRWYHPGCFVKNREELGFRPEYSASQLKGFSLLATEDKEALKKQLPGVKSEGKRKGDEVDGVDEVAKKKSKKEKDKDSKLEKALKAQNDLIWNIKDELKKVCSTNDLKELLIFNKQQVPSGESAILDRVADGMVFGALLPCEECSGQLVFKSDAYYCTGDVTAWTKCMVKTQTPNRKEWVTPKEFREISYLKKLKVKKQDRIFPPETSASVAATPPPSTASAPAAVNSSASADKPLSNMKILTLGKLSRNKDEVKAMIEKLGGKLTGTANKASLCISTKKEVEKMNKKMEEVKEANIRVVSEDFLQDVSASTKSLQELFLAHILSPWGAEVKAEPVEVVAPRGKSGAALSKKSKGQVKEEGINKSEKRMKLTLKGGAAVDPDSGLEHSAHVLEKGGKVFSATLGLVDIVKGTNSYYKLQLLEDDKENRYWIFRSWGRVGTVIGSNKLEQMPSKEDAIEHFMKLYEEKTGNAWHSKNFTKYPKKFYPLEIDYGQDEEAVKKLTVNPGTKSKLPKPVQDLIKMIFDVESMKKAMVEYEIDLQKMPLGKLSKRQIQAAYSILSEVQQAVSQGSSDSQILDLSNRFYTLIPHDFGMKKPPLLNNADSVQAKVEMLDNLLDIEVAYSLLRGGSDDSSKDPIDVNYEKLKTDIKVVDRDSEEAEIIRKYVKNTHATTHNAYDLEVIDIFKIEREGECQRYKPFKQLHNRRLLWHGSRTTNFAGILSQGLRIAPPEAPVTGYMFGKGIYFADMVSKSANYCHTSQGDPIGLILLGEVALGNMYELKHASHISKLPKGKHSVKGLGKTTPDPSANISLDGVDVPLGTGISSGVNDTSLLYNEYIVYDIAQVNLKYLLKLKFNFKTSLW

For the compound `O=C(CC[C@@H]1CCCN1c1cc(C(F)(F)F)c(=O)[nH]n1)N1CCN(c2ncc(C(F)(F)F)cn2)CC1`, the IC50 in assay [1] is 0.0029 µM; in assay [2] it was 0.0013 µM.
For `O=C(COC[C@@H]1CCCN1c1cc(C(F)(F)F)c(=O)[nH]n1)N1CCN(c2ncc(C(F)(F)F)cn2)CC1` [US20240294509, Compound 1] the same measures were 0.004 µM and 0.293 µM.
For `O=C(CC[C@@H]1C[C@H](Oc2ccccc2)CN1c1cc(C(F)(F)F)c(=O)[nH]n1)N1CCN(c2ncc(C(F)(F)F)cn2)CC1` [US20240294509, Compound 19] the same measures were 0.0044 µM and 2.02 µM.
For `O=C(CC[C@@H]1C[C@@H](F)CN1c1cc(C(F)(F)F)c(=O)[nH]n1)N1CCN(c2ncc(C(F)(F)F)cn2)CC1` [US20240294509, Compound 20] the same measures were 0.0032 µM and 0.049 µM.
Take `O=C(CC[C@@H]1C[C@@H](Oc2cccc(Cl)c2)CN1c1cc(C(F)(F)F)c(=O)[nH]n1)N1CCN(c2ncc(C(F)(F)F)cn2)CC1` [US20240294509, Compound 49]: the IC50 stood at 0.026 µM in assay [1] and 0.079 µM in assay [2].
For `O=C(CC[C@@H]1C[C@@H](Oc2ccc(F)cc2F)CN1c1cc(C(F)(F)F)c(=O)[nH]n1)N1CCN(c2ncc(C(F)(F)F)cn2)CC1` [US20240294509, Compound 50] the same measures were 0.013 µM and 0.015 µM.
With `O=C(CC[C@@H]1C[C@H](Oc2cc(F)cc(F)c2)CN1c1cc(C(F)(F)F)c(=O)[nH]n1)N1CCN(c2ncc(C(F)(F)F)cn2)CC1` [US20240294509, Compound 55], the IC50 in assay [1] worked out at 0.082 µM; in assay [2] it was 15.6 µM.
The corresponding values for `O=C(CC[C@@H]1C[C@H](Oc2ccc(F)c(F)c2)CN1c1cc(C(F)(F)F)c(=O)[nH]n1)N1CCN(c2ncc(C(F)(F)F)cn2)CC1` [US20240294509, Compound 58] are 0.054 µM and 3.19 µM.
The corresponding values for `O=C(CC[C@@H]1C[C@@H](Oc2cncnc2)CN1c1cc(C(F)(F)F)c(=O)[nH]n1)N1CCN(c2ncc(C(F)(F)F)cn2)CC1` [US20240294509, Compound 63] are 0.003 µM and 0.179 µM.

Usually IC50 stands for the concentration needed to halve the response being measured.
